The results in this text go back to patent US8889676B2, “3-ureidoisoquinolin-8-yl derivatives” (Actelion Pharmaceuticals Ltd., priority 2011, dated 2014).

Converted amounts (≈) assume the structure as drawn.

The test concerns S. pneumoniae ATCC 49619. The experiment in a line: Minimal inhibitory concentration (MIC) by broth microdilution (CLSI M7-A7). Format: cell-based, Streptococcus pneumoniae. Conditions: Streptococcus pneumoniae, ATCC49619; cation-adjusted Mueller Hinton Broth supplemented with 3% (v/v) lysed horse blood; microdilution method. The procedure, abridged: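 Broth microdilution per CLSI M7-A7 in cation-adjusted Mueller-Hinton broth with 3% (v/v) lysed horse blood for S. pneumoniae. MIC in mg/l.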
Take `CCNC(=O)Nc1cc2c(-c3cc(F)nc(F)c3)ccc(CNC(=O)OC)c2cn1` [Example 172, [5-(2,6-difluoro-pyridin-4-yl)-3-(3-ethyl-ureido)-isoquinolin-8-ylmethyl]-carbamic acid methyl ester]: the MIC (commonly the lowest concentration found to suppress growth) stood at 1 µg/mL (≈ 2.41 µM). As for `CCNC(=O)Nc1cc2c(-c3ccnc(OC(C)C)c3)ccc(CNC(=O)OC)c2cn1` [Example 173, [3-(3-ethyl-ureido)-5-(2-isopropoxy-pyridin-4-yl)-isoquinolin-8-ylmethyl]-carbamic acid methyl ester], the figure is 4 µg/mL (≈ 9.14 µM). `CCNC(=O)Nc1cc2c(-c3ccnc(N4CCCCC4)c3)ccc(CNC(=O)OC)c2cn1` [Example 174, [3-(3-ethyl-ureido)-5-(3,4,5,6-tetrahydro-2H-[1,2′]bipyridinyl-4′-yl)-isoquinolin-8-ylmethyl]-carbamic acid methyl ester] gave a minimal inhibitory concentration (MIC) of 4 µg/mL (≈ 8.65 µM). The same measure for `CCNC(=O)Nc1cc2c(-c3ccnc(C)c3)ccc(CNC(=O)OC)c2cn1` [Example 175, [3-(3-ethyl-ureido)-5-(2-methyl-pyridin-4-yl)-isoquinolin-8-ylmethyl]-carbamic acid methyl ester]: 0.5 µg/mL (≈ 1.27 µM).

`CCNC(=O)Nc1cc2c(-c3ccnc(C)c3)ccc(CNC(=O)OC(C)(C)C)c2cn1` [Example 176, [3-(3-ethyl-ureido)-5-(2-methyl-pyridin-4-yl)-isoquinolin-8-ylmethyl]-carbamic acid tert-butyl ester] displayed an MIC of 1 µg/mL (≈ 2.3 µM). With `CCNC(=O)Nc1cc2c(-c3ccnc(CCC(N)=O)c3)ccc(CNC(=O)OCCOC)c2cn1` [Example 177, [5-[2-(2-carbamoyl-ethyl)-pyridin-4-yl]-3-(3-ethyl-ureido)-isoquinolin-8-ylmethyl]-carbamic acid 2-methoxy-ethyl ester], the MIC worked out at 8 µg/mL (≈ 16.2 µM). In turn, `CCNC(=O)Nc1cc2c(-c3ccnc(CC(=O)OC(C)(C)C)c3)ccc(CNC(=O)OCCOC)c2cn1` [Example 178, (4-{3-(3-ethyl-ureido)-8-[(2-methoxy-ethoxycarbonylamino)-methyl]-isoquinolin-5-yl}-pyridin-2-yl)-acetic acid tert-butyl ester] displayed an MIC of 2 µg/mL (≈ 3.72 µM). `CCNC(=O)Nc1cc2c(-c3ccnc(C(N)=O)c3)ccc(CNC(=O)OCCOC)c2cn1` [Example 179, [5-(2-carbamoyl-pyridin-4-yl)-3-(3-ethyl-ureido)-isoquinolin-8-ylmethyl]-carbamic acid 2-methoxy-ethyl ester] came in with an MIC of 8 µg/mL (≈ 17.1 µM). In the case of `CCNC(=O)Nc1cc2c(-c3ccnc(C)c3)ccc(CN(C)C(=O)OC)c2cn1` [Example 180, [3-(3-ethyl-ureido)-5-(2-methyl-pyridin-4-yl)-isoquinolin-8-ylmethyl]-methyl-carbamic acid methyl ester], the lowest concentration to inhibit growth (MIC) was 8 µg/mL (≈ 19.6 µM).

Turning to `CCNC(=O)Nc1cc2c(-c3ccnc(C)c3)ccc(CN(C)C(=O)OCCOC)c2cn1` [Example 181, [3-(3-ethyl-ureido)-5-(2-methyl-pyridin-4-yl)-isoquinolin-8-ylmethyl]-methyl-carbamic acid 2-methoxy-ethyl ester], the MIC worked out at 8 µg/mL (≈ 17.7 µM). Molecule `CCNC(=O)Nc1cc2c(-c3ccncc3)ccc(CNC(=O)OCCC(N)=O)c2cn1` [Example 182, [3-(3-ethyl-ureido)-5-pyridin-4-yl-isoquinolin-8-ylmethyl]-carbamic acid 2-carbamoyl-ethyl ester] registered an MIC of 2 µg/mL (≈ 4.58 µM). As for `CCNC(=O)Nc1cc2cccc(CNC(=O)c3cnn[nH]3)c2cn1` [Example 183, 3H-[1,2,3]triazole-4-carboxylic acid [3-(3-ethyl-ureido)-isoquinolin-8-ylmethyl]-amide], the figure is 1 µg/mL (≈ 2.95 µM).

In turn, `CCNC(=O)Nc1cc2c(-c3ccncc3F)ccc(CNC(=O)OC)c2cn1.Cl` [Example 184, [3-(3-ethyl-ureido)-5-(3-fluoro-pyridin-4-yl)-isoquinolin-8-ylmethyl]-carbamic acid methyl ester hydrochloride] came in with an MIC of 1 µg/mL.
